Key:
Hex^RS ES cells [1] = assay: ADE (H+C+) induction, two-step suspension (embryoid body) differentiation with serum day 0-2, flow cytometry for RS and Cxcr4; format: cell-based, mouse
Protocol: ADE was induced under serum-containing conditions using a 2-step protocol. ES cells were seeded onto non-coated 10 cm petri dishes (sterilin) at a density of 5×10^3 cells/ml in Glasgow minimum essential medium (G-MEM; GIBCO-BRL) supplemented with 10% fetal calf serum (FCS), 0.1 mM nonessential amino acids (GIBCO-BRL), 1 mM sodium pyruvate, 2 mM glutamine and 0.1 mM 2-mercaptoethanol (2ME). Following 2 days of culture the resulting embryoid bodies (EBs) were harvested by centrifugation at 500 rpm for 1 min and replated on 10 cm non-coated petri dishes at the same density in N2B27 culture medium (StemCellSciences) supplemented with 20 ng/ml activin A (R&D). The media was replaced 2 days later and then every 3 days for the duration of the experiment. For some experiments 20 ng/ml EGF, 10 ng/ml Bmp4, 20 ng/ml activin A (R&D), 1×10^−5M all-trans retinoic acid (Sigma) and 3 μM CHIR99021 (a gift from StemCellSciences) were added to the culture at the indicated timepoints.
(§1) FITC-conjugated rat anti-CD184 (CXCR4), FITC-conjugated rat anti-CD31 and FITC conjugated rat anti-CD45 were purchased from BD Pharmingen. EBs generated under various different differentiation conditions were dissociated by treatment with cell dissociation buffer (PBS based) (GIBCO-BRL). Cells were washed in PBS supplemented with 10% FCS (FB) and resuspended at a maximum density of 5×10^6 cells/ml. For surface staining 200 μl of cells were plated in a V shape 96 well polystyrene plate (Sterilin) in PBS supplemented with 1% serum of the species in which the antibody was manufactured. The FITC-conjugated antibody or a FITC-conjugated isotype control was added at a 1:100 dilution. Cells were incubated in the dark for 20 mins, washed 3 times with FB and resuspended in FB supplemented with Topro3-iodide (Invitrogen) to exclude dead cell from the analysis. Cells were analysed using a FACS Calibur (BD Biosciences) or sorted using a MoFlo MLS flow cytometer (DakoCytomation).
Mouse ES cells were cultured according to Li et al., (1995). ADE was induced under serum-containing conditions using a 2-step protocol. ES cells were seeded onto non-coated 10 cm petri dishes (Sterilin) at a density of 5×10^3 cells/ml in GMEM supplemented as described in Li et al., (1995) except in the absence of LIF. EBs were harvested after two days by centrifugation and replated in N2B27 medium (StemCellSciences) supplemented with 20 ng/ml activin A (R&D) and 20 ng/ml EGF (R&D). This media was replaced again two days later. 10 ng/ml BMP4, 20 ng/ml activin A (R&D) and 1×10^−5M all-trans retinoic acid (Sigma) were added where indicated.
(§2) FITC-conjugated rat anti-CD184 (Cxcr4), FITC-conjugated rat anti-CD31 and FITC conjugated rat anti-CD45 were purchased from BD Pharmingen. Cells were stained with Topro3-iodide (Invitrogen) to exclude dead cells from the analysis. Cells were analysed using a FACS Calibur (BD Biosciences) or sorted using a MoFlo MLS flow cytometer (DakoCytomation).

Hex^RS ES cells [2] = assay: ADE (H+C+) induction, serum-free suspension (aggregation) culture, flow cytometry; format: cell-based
Protocol: For ADE induction under serum-free conditions in suspension culture, ES cells were seeded onto non-coated 10 cm Petri dishes at 5×10^3 cells/ml in N2B27 culture medium supplemented with 10 ng/ml Bmp4 and 20 ng/ml activin A. Following 2 days of culture the resulting EBs were harvested as above and replated on non-coated Petri dishes at the same density in SF03 culture medium (ref Tada 2005) supplemented with 20 ng/ml activin A and 20 ng/ml EGF. The media was replaced 2 days later and then every 3 days for the duration of the experiment. For some experiments 10 ng/ml Fgf4 (R&D), 10 ng/ml Bmp4, 20 ng/ml Activin A, 1×10^−5M all-trans retinoic acid, 100 ng/ml PD173074 (Sigma), 20 ng/ml EGF and 3 μM CHIR99021 were added to the culture at the indicated timepoints.
as §1, with “(DakoCytomation). […]” for “(DakoCytomation).”
FITC-conjugated rat anti-CD184 (Cxcr4), FITC-conjugated rat anti-CD31 and FITC conjugated rat anti-CD45 were purchased from BD Pharmingen. […] Cells were analysed using a FACS Calibur (BD Biosciences) or sorted using a MoFlo MLS flow cytometer (DakoCytomation).

Hex^RS ES cells [3] = assay: ADE (H+C+) induction, serum-free adherent monolayer culture, flow cytometry, RT-PCR and immunostaining; format: cell-based; conditions: for ADE differentiation / ability to promote ADE formation: FIG. 25; for ADE differentiation: added to cultures for days 3-4 or days 3-7, PD173074 100 ng/ml, SU5402 25 μM; for ability to promote ADE formation: monolayer, FGFs at 10 ng/ml
Protocol: For ADE induction under serum-free conditions in adherent monolayer culture, ES cells were seeded onto gelatin coated 3 cm 6 well dishes (Iwaki) at a density of 1×10^4 cells/ml in N2B27 medium (StemCellSciences) supplemented with 10 ng/ml Bmp4, 20 ng/ml activin A and 10 ng/ml Fgf4. Following 2 days of culture the media was replaced with SF03 culture medium (Tada 2005) supplemented with 20 ng/ml activin A, 10 ng/ml Fgf4 and 20 ng/ml EGF. The media was replaced 2 days later and then every 3 days for the duration of the experiment. For some experiments 1×10^−5M all-trans retinoic acid, 100 ng/ml PD173074 and 3 μM CHIR99021 were added to the culture at the indicated timepoints.
as §1
Total RNA was prepared from a minimum of 1×10^4 cells from sorted cell fractions, EBs, monolayer differentiated cells or ES cells using Trizol reagent (Invitrogen). 1 μg of RNA was used as a template for cDNA synthesis using Superscript III (Invitrogen). Real-time RT-PCR was performed using a LightCycler 480 (Roche) and LightCycler 480 SYBR Green 1 Master (Roche). The following cycling conditions were used: denaturation: 95° C. 5 sec, amplification: 95° C. 5 sec, 58° C. 10 sec, 72° C. 20 sec (45 cycles), 81° C. 1 sec, melt: 95° C. 1 sec, 65° C. 10 sec, 95° C. −ramp 5 C per sec continuous, cool: […] 10 sec. Standard curves were generated from plasmid. Samples were normalized to β-actin or TATA-box binding protein (TBP) expression levels.
Sorted cells were seeded onto gelatin coated 24 well dishes (Iwaki). Adherence of cells to the substrate was enhanced by centrifugation at 1200 rpm for 3 mins. Sorted cells, monolayer differentiated cells and ES cells were washed in PBS, fixed in 4% paraformaldehyde for 10 mins and permeabilised by washing in PBS supplemented with 0.1% Triton X (PBST). Cells were treated with a blocking reagent (3% serum of same species as secondary antibody, 1% BSA in PBST) for 15 min before incubation with the primary antibody at 4° C. overnight. The cells were washed with PBST and incubated with the appropriate fluorescence-tagged secondary antibody for 2 hr at room temperature. The cells were washed with PBST and DAPI added during the final wash. The following primary antibodies were used, all are anti-mouse: anti-Oct3/4, anti-HNF-3β (Foxa2), anti-HNF-4α (Santa Cruz), anti-Cer11 (R&D), anti-E-cadherin (Takara Bio Inc) anti-alpha fetoprotein (NeoMarkers), anti-albumin (Bethyl laboratories inc). Anti-Pdx1 was a gift from P. Serup. […]
as §2

[4] = FGF signalling blocked for days 3-7
[5] = exogenous FGF4, defined monolayer culture (FIG. 22C, D)

Cc1c[nH]c(-c2cnc(NCCNc3ccc(C#N)cn3)nc2-c2ccc(Cl)cc2Cl)n1 [CHIR99021]
induction of the H+C+ cell population (Hex^RS ES cells [1]; addition at day 0-2, in the presence of serum): completely blocked | total number of surviving cells at the end of the 7 day differentiation (Hex^RS ES cells [2]; added during the first two days, serum-free, aggregation and monolayer (Table 7)): significantly increased | total number of H+C+ cells produced (Hex^RS ES cells [2]; serum-free differentiation (Table 7)): no or only very minor effects

CCN(CC)CCCCNc1ncc2cc(-c3cc(OC)cc(OC)c3)c(NC(=O)NC(C)(C)C)nc2n1 [PD173074, reference compound]
H+C+ and C+ populations (Hex^RS ES cells [3]; [4]): complete loss | cell survival / viability (Hex^RS ES cells [3]; [4]): dramatically compromised | ADE differentiation (Hex^RS ES cells [3]): inhibit ADE differentiation | generation of C+ and H+C+ populations (Hex^RS ES cells [3]; inhibitor present for the entire protocol): unable to generate either population | number of C+ and H+C+ cells (Hex^RS ES cells [3]; inhibitor present for the first two days of differentiation, then removed): reduced number

Cc1c[nH]c(/C=C2\C(=O)Nc3ccccc32)c1CCC(=O)O [SU5402, reference compound]
ADE differentiation (Hex^RS ES cells [3]): inhibit ADE differentiation

CC1=C(/C=C/C(C)=C/C=C/C(C)=C/C(=O)O)C(C)(C)CCC1 [retinoic acid, all-trans retinoic acid, reference compound]
induction of the RS positive population (Hex^RS ES cells [1]; added either at day 0 or day 3 (Table 2)): completely blocked | CXCR4 induction (Hex^RS ES cells [1]; added either at day 0 or day 3, data not shown): without effecting

FGF2: fibroblast growth factor, 10 ng/ml
ability to promote ADE formation (Hex^RS ES cells [3]): have the ability to promote ADE formation

B1: FGF5: fibroblast growth factor, 10 ng/ml (protein, UniProt P12034 21-268, looked up)
Fibroblast growth factor 5: HGEKRLAPKGQPGPAATDRNPRGSSSRQSSSSAMSSSSASSSPAASLGSQGSGLEQSSFQWSPSGRRTGSLYCRVGIGFHLQIYPDGKVNGSHEANMLSVLEIFAVSQGIVGIRGVFSNKFLAMSKKGKLHASAKFTDDCKFRERFQENSYNTYASAIHRTEKTGREWYVALNKRGKAKRGCSPRVKPQHISTHFLPRFKQSEQPELSFTVTVPEKKKPPSPIKPKIPLSAPRKNTNSVKYRLKFRFG
ability to promote ADE formation (Hex^RS ES cells [3]): not

B2: activin: secreted TGFβ ligand, activin A (R&D), 20 ng/ml (protein, UniProt P08476 311-426, looked up)
Inhibin beta A chain: GLECDGKVNICCKKQFFVSFKDIGWNDWIIAPSGYHANYCEGECPSHIAGTSGSSLSFHSTVINHYRMRGHSPFANLKSCCVPTKLRPMSMLYYDDGQNIIKKDIQNMIVEECGCS
modifications: Inhibin beta A chain
cells RS positive (Hex^RS ES cells [1]; day 7, serum containing media 48 hr, then serum free media supplemented with activin 5 days): 6.8-8.6%

B3: FGF10: fibroblast growth factor, 10 ng/ml (protein, UniProt O15520 38-208, looked up)
Fibroblast growth factor 10: QALGQDMVSPEATNSSSSSFSSPSSAGRHVRSYNHLQGDVRWRKLFSFTKYFLKIEKNGKVSGTKKENCPYSILEITSVEIGVVAVKAINSNYYLAMNKKGKLYGSKEFNNDCKLKERIEENGYNTYASFNWQHNGRQMYVALNGKGAPRRGQKTRRKNTSAHFLPMVVHS
ability to promote ADE formation (Hex^RS ES cells [3]): not

B4: FGF4: fibroblast growth factor, 10 ng/ml (R&D) (protein, UniProt P08620 31-206, looked up)
Fibroblast growth factor 4: APTAPNGTLEAELERRWESLVALSLARLPVAAQPKEAAVQSGAGDYLLGIKRLRRLYCNVGIGFHLQALPDGRIGGAHADTRDSLLELSPVERGVVSIFGVASRFFVAMSSKGKLYGSPFFTDECTFKEILLPNNYNAYESYKYPGMFIALSKNGKTKKGNRVSPTMKVTHFLPRL
H+C+ ADE (Hex^RS ES cells [3]; FIG. 22E, FGF4 added solely during the second phase of differentiation): up to 20% | ability to promote ADE formation (Hex^RS ES cells [3]): have the ability to promote ADE formation | number of CXCR4 expressing cells (Hex^RS ES cells [3]; addition of Fgf4, monolayer): did not increase | anterior markers Cer1 and Gsc (Hex^RS ES cells [3]; [5]): induction | expression of Foxa2 and Sox17 (Hex^RS ES cells [3]; [5]): increased | mesodermal and primitive streak gene expression (Hex^RS ES cells [3]; exogenous FGF4, defined monolayer culture (FIG. 22D)): suppressing | H+C+ cell number (Hex^RS ES cells [3]; monolayer cultures, inclusion in the differentiation protocol): doubled

From patent US9005962B2, “Regionalised endoderm cells and uses thereof” (The University Court of the University of Edinburgh, priority 2007, dated 2015)
